# Test results: patent US12364672B2, “Esketamine for use in treating major depressive disorder” (priority 2018, dated 2025)
# How the values were obtained:
# [1] = system: human peripheral blood lymphocytes (HPBL)
# C57Bl/6 strain mice [2] = test: Tail suspension test, 7-day administration; type: in vivo, mouse
# Experimental: Esketamine HCl solutions were administered intraperitoneally (ip) to 8 groups of 10 inbred C57Bl/6 strain mice divided to receive one of the following dose levels for 7 days:
# 1. saline 10 ml/kg ip once prior to TST
# 2. esketamine 15 mg/kg ip once on day 7 prior to TST
# 3. esketamine 30 mg/kg ip once on day 7 prior to TST
# 4. saline 10 ml/kg ip daily for 7-days
# 5. esketamine 7.5 mg/kg ip daily for 7-days
# 6. esketamine 15 mg/kg ip daily for 7-days
# 7. esketamine 30 mg/kg ip once on day 1+saline daily for 6 more days
# 8. esketamine 30 mg/kg ip once on day 1+esketamine 7.5 mg/kg for 6 more days.
# 30 minutes after the last treatment, the animals were exposed to the tail suspension test (TST).
# liver of Crl:CD(SD) rats = test: In vivo single cell gel electrophoresis (comet) assay, liver; details: some male animals given 75 mg/kg/day
# [3] = system: healthy male and female subjects; test: Single dose crossover study in healthy volunteers, treatment-emergent adverse events; type: in vivo, human; details: all treatments
# Source text: A total of 128 TEAEs (treatment-emergent adverse event) were reported by 15 of 16 (94%) subjects of which 79 TEAEs reported by 14 of 16 (88%) subjects were to be related to the study drug. Overall, a total of 14 of 128 TEAEs reported by 4 (25%) subjects were of moderate severity and 114 of 128 TEAEs reported by 15 (94%) subjects were of mild severity. […] The most frequently occurring adverse events (reported more than twice) were headache, dizziness, hypokinesia, feeling abnormal, fatigue, euphoric mood inappropriate affect, nausea and hyperhidrosis. Table 4 presents the frequency of the most frequently reported related TEAEs as a percentage of the subjects that experienced an adverse effect per treatment.
# C57Bl/6 strain mice [4] = test: Tail suspension test, single dose; type: in vivo, mouse; details: TST after 30 minutes
# Experimental: Ketamine and esketamine HCl solutions at dose levels of 7.5, 15 and 30 mg/kg were administered intraperitoneally (ip) to groups of 10 inbred C57Bl/6 strain mice. After 30 minutes animals were exposed to the tail suspension test (TST).
# [5] = system: human peripheral blood lymphocytes (HPBL); remark: listed apart in the source
# Experimental: Toxicity (defined as ≥45% reduction in MI relative to the vehicle control) was evaluated at 9 concentrations, ranging from 0.0238 to 238 μg/ml, after exposure of HPBL to esketamine for 20 hours in the absence of S9 activation, or for 4 hours, either in the presence or absence of S9 activation, followed by a 16-hour recovery period.
# The definitive chromosome aberration assay evaluated HPBL cells after exposure to esketamine for 20 hours in the absence of S9 activation, or for 4 hours, either in the presence of absence of S9 activation, followed by a 16-hour recovery. Positive controls for chromosomal aberrations in non-activated and S9-activated evaluations, respectively, consisted of mitomycin C (MMC, 0.6 and 0.3 μg/mL for the 4- and 20-hour exposures, respectively) and cyclophosphamide (CP, 2.5, 5, and 7.5 μg/mL). […] Initially, the doses selected for evaluation of chromosomal aberrations were 60, 120, and 238 μg/mL for the non-activated 4- and 20-hour treatment conditions; and 30, 60, and 200 μg/mL for the S9-activated 4-hour treatment condition.
SMILES,Toxicity (mitotic index) [1],efficacy in the TST vs 7-day saline control group (C57Bl/6 strain mice [2]; 7.5 mg/kg ip daily for 7 days (Group 5)),"decrease in immobility time (C57Bl/6 strain mice [2]; 15 mg/kg ip daily for 7 days (Group 6), not statistically significant)","decrease in immobility time (C57Bl/6 strain mice [2]; 15 mg/kg ip once, acute (printed Group 3), p<0.007)","effect on time spent in immobility (C57Bl/6 strain mice [2]; 30 mg/kg ip once on day 1 + 7.5 mg/kg for 6 more days (Group 8) vs Group 7, p=0.02)",immobility time 7 days after a single injection (C57Bl/6 strain mice [2]; 30 mg/kg ip once on day 1 + saline for 6 more days (Group 7)),liver histopathology (liver of Crl:CD(SD) rats),severe TEAEs or SAEs [3],reduction of immobility time from the saline control group (C57Bl/6 strain mice [4]; 7.5 mg/kg ip),reduction of immobility time from the saline control group (C57Bl/6 strain mice [4]; 15 mg/kg ip),reduction of immobility time from the saline control group (C57Bl/6 strain mice [4]; 30 mg/kg ip),Toxicity (≥45% reduction in MI relative to the vehicle control) [5],"cytotoxicity (45% reduction in mitotic index relative to the vehicle control) ([5]; definitive assay, non-activated 4- and 20-hour treatment, any dose (30 to 238 μg/ml))"
"N[C@]1(c2ccccc2Cl)CCCCC1=O [(S)-norketamine, (2S)-2-(2-Chlorophenyl)-2-(amino) cyclohexanone]",not observed,,,,,,,,,,,,
"CN[C@]1(c2ccccc2Cl)CCCCC1=O [esketamine, (2S)-2-(2-Chlorophenyl)-2-(methylamino) cyclohexanone]",,did not exert any efficacy,~35%,38.9%,53.4%,no decline in immobility time,Increased hepatocellular mitotic figures,No severe TEAEs or SAEs,27.0%,43.6%,58.1%,not observed,not observed
"CNC1(c2ccccc2Cl)CCCCC1=O (stereo not drawn) [ketamine, dl 2-(2-chlorophenyl)-2(methylamino) cyclohexanone]",,,,,,,,,,,71.2%,,
